Measurements taken from patent US20110269743A1, “PHENYLTHIOPHENYLDIHYDROBENZOTHIAZEPINE INHIBITORS OF STORE OPERATED CALCIUM RELEASE” (CalciMedica, Inc, priority 2008, published 2011).

System: JR251 or RBL cells
Experiment: Fluorescence-based store-operated calcium entry assay, IC50 in JR251 or RBL cells
Type: cell-based
Conditions: in either JR251 or RBL cells, or both
Procedure: The day prior to performing the assay, RBL-2H3 cells are plated in 50 μL of complete medium in a 384 well plate. Cells are grown at 37° C./6% CO2 overnight and grow to 50-60% confluence by the next day. On the assay day, 1.5 μM Fluo-4-AM dye (Invitrogen) in complete medium is added and incubated for 1 hour at RT. Cells are washed twice in Ca^2+-free HBSS buffer and 35 μL Ca^2+-free HBSS buffer is added to each well. 10 μL of a test compound prepared in a Ca^2+-free HBSS solution at 4.5× of the desired concentration is added to a well and incubated for 5 minutes at RT. 10 μL of thapsigargin prepared in a Ca^2+-free HBSS solution at 5.5× of the desired concentration (5.5 uM) is added to each well and incubated for an additional 25 minutes. The initial baseline fluorescence signal is measured with a FLIPR^384 (Molecular Devices) plate reader. 5 μL of 12× calcium in HBSS (12 mM) is added and changes in cellular fluorescence are measured with the FLIPR^384 plate reader. In each well, the change in the fluorescent signal as a function of time due to calcium entry into the cell is determined by calculating the difference between the fluorescent signal measured 7 seconds after calcium addition and the initial baseline fluorescence signal at time zero (t=0). This parameter is designated Upslope. The IC50 value is calculated as the concentration at which 50% of the Upslope is inhibited.
The day prior to performing the assay, Jurkat E6-1 cells are seeded at a density of 2 million cells/mL in complete medium in a T-175 flask. Cells are grown at 37° C./6% CO2 overnight. On the following day, 1.5 μM Fluo-4-AM dye (Invitrogen) in complete medium is added and incubated for 1 hour at RT. Cells are harvested, washed twice in Ca^2+-free HBSS buffer and plated in 35 μL Ca^2+-free HBSS buffer in a 384 well plate. 10 μL of a test compound prepared in a Ca^2+-free HBSS solution at 4.5× of the desired concentration is added to a well and incubated for 5 minutes at RT. 10 μL of thapsigargin prepared in a Ca^2+-free HBSS solution at 5.5× of the desired concentration (5.5 uM) is added to each well and incubated for an additional 25 minutes. The initial baseline fluorescence signal is measured with a FLIPR^384 (Molecular Devices) plate reader. 5 μL of 12× calcium in HBSS (12 mM) is added and changes in cellular fluorescence are measured with the FLIPR^384 plate reader. In each well, the change in the fluorescent signal as a function of time due to calcium entry into the cell is determined by calculating the difference between the fluorescent signal measured 7 seconds after calcium addition and the initial baseline fluorescence signal at time zero (t=0). This parameter is designated Upslope. The IC50 value is calculated as the concentration at which 50% of the Upslope is inhibited.

| Structure (SMILES) | IC50 [µM] |
| --- | --- |
| Clc1ccc(C2CC(c3ccco3)=Nc3ccccc3S2)c(Cl)c1 (centres unmarked) [(E)-2-(2,4-dichlorophenyl)-4-(furan-2-yl)-2,3-dihydrobenzo[b][1,4]thiazepine] | < 10 |
| COc1ccc(C2CC(c3ccco3)=Nc3ccccc3S2)c(OC)c1 (centres unmarked) [(E)-2-(2,4-dimethoxyphenyl)-4-(furan-2-yl)-2,3-dihydrobenzo[b][1,4]thiazepine] | < 10 |
| Fc1ccccc1C1CC(c2ccco2)=Nc2ccccc2S1 (centres unmarked) [(E)-2-(2-fluorophenyl)-4-(furan-2-yl)-2,3-dihydrobenzo[b][1,4]thiazepine] | < 10 |
| COc1ccc(C2CC(c3cccs3)=Nc3ccccc3S2)cc1OC (centres unmarked) [(E)-2-(3,4-dimethoxyphenyl)-4-(thiophen-2-yl)-2,3-dihydrobenzo[b][1,4]thiazepine] | < 10 |
| FC(F)Oc1ccc(C2CC(c3ccco3)=Nc3ccccc3S2)cc1 (centres unmarked) [(E)-2-(4-(difluoromethoxy)phenyl)-4-(furan-2-yl)-2,3-dihydrobenzo[b][1,4]thiazepine] | < 10 |
| FC(F)Oc1ccc(C2CC(c3cccs3)=Nc3ccccc3S2)cc1 (centres unmarked) [(E)-2-(4-(difluoromethoxy)phenyl)-4-(thiophen-2-yl)-2,3-dihydrobenzo[b][1,4]thiazepine] | < 10 |
| Fc1ccc(C2CC(c3ccco3)=Nc3ccccc3S2)cc1 (centres unmarked) [(E)-2-(4-fluorophenyl)-4-(furan-2-yl)-2,3-dihydrobenzo[b][1,4]thiazepine] | < 10 |
| Fc1ccc(C2CC(c3cccs3)=Nc3ccccc3S2)cc1 (centres unmarked) [(E)-2-(4-fluorophenyl)-4-(thiophen-2-yl)-2,3-dihydrobenzo[b][1,4]thiazepine] | < 10 |
| FC(F)(F)c1ccc(C2CC(c3ccco3)=Nc3ccccc3S2)cc1 (centres unmarked) [(E)-4-(furan-2-yl)-2-(4-(trifluoromethyl)phenyl)-2,3-dihydrobenzo[b][1,4]thiazepine] | < 10 |
| COc1ccc(C2CC(c3ccco3)=Nc3ccccc3S2)cc1 (centres unmarked) [(E)-4-(furan-2-yl)-2-(4-methoxyphenyl)-2,3-dihydrobenzo[b][1,4]thiazepine] | < 10 |
| Cc1ccc(C2CC(c3ccco3)=Nc3ccccc3S2)cc1 (centres unmarked) [(E)-4-(furan-2-yl)-2-p-tolyl-2,3-dihydrobenzo[b][1,4]thiazepine] | < 10 |
| Cc1ccc(C2CC(c3cccs3)=Nc3ccccc3S2)cc1 (centres unmarked) [(E)-4-(thiophen-2-yl)-2-p-tolyl-2,3-dihydrobenzo[b][1,4]thiazepine] | < 10 |

System: Jurkat cells and colon cancer cells
Experiment: not given
Conditions: cited from earlier work

| Structure (SMILES) | inhibition of SOCE and proliferation |
| --- | --- |
| Cc1nnsc1C(=O)Nc1ccc(-n2nc(C(F)(F)F)cc2C(F)(F)F)cc1 [BTP-2] | inhibits SOCE and proliferation |

Target: STIM1 and Orai1 in HEK293 cells (Homo sapiens, UniProt Q96D31)
Experiment: not given
Conditions: HEK293 cells coexpressing STIM1 and Orai1; cited from earlier work

STIM1 and Orai1 in HEK293 cells, sequence (Q96D31 whole entry): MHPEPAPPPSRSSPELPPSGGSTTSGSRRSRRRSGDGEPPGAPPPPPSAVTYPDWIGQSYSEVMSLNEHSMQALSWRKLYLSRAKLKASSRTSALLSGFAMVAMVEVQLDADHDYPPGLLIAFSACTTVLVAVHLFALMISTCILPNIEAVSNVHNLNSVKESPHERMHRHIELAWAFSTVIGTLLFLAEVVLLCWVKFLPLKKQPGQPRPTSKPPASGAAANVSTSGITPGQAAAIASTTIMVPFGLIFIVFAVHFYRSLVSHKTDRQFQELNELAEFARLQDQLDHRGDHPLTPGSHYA

| Structure (SMILES) | block of store-operated Ca2+ entry |
| --- | --- |
| NCCOB(c1ccccc1)c1ccccc1 [2-aminoethoxydiphenylborate] | completely blocked |
